The values below come from PMC10764862, “Structural basis and selectivity of sulfatinib binding to FGFR and CSF-1R” (Communications Chemistry, 2024).

Assay [1] concerns the target T1, FGFR1 (Homo sapiens, UniProt P11362).
T1 construct: FGFR1 (residues 458–765); 6×His (PreScission-cleavable) (N, cleaved yes); made in house; host or cells: E. coli BL21 Rosetta
Nature of the assay: Kinase inhibition assay (ADP-Glo), FGFR1. The following applies: wild-type kinase domain. It is filed as biochemical. The protocol: (§1) FGFRs were prepared as previously described[6],[34],[44],[45]. Briefly, FGFR1 (residues 458–765), FGFR2 (residues 458–768), FGFR3 (residues 450–758) as well as FGFR4 (residues 445–753), and their mutants, FGFR1^C584S, FGFR1^V561M, FGFR2^V564I, FGFR2^V564F and FGFR3^V555M, were cloned into a modified pET28a vector in frame with an N-terminal PreScission-cleavable 6×His tag and expressed in E. coli BL21 Rosetta cells. For crystallization, FGFR1^C584S was co-expressed with untagged YOPH to induce non-phosphorylated proteins. The harvested cell pellets were lysed in a buffer containing 20 mM Tris-HCl, pH 8.0, 500 mM NaCl, 20 mM imidazole and 0.5 mM TCEP, and FGFRs were purified over Ni-NTA resin followed by enzymatic digestion with PreScission for 6×His-tag cleavage and further purified by anion exchange chromatography (GE Healthcare). For crystallization, FGFR1^C584S was further purified by gel filtration chromatography (GE Healthcare). […]
(§2) The inhibition by sulfatinib was determined by the measurement of kinase activities following the ADP-Glo assay kit (Promega)[6],[44],[45]. […] Following the addition of detection reagent to convert the generated ADP to ATP, the luminescence was detected by a plate reader (Perkin Elmer). Samples were run in triplicate and the IC50 values were calculated by log[Inhibitor] versus kinase activity ratio in GraphPad Prism 8.0.
In general terms: In ADP-Glo the light output rises with the ADP produced.

Assay [2] has as its target T2, FGFR2 (Homo sapiens, UniProt P21802).
T2 construct: FGFR2 (residues 458–768); 6×His (PreScission-cleavable) (N, cleaved yes); made in house; host or cells: E. coli BL21 Rosetta
Nature of the assay: Kinase inhibition assay (ADP-Glo), FGFR2. The class given is biochemical. Conditions: wild-type kinase domain. The protocol: as §1, §2

The target in assay [3] is T3, FGFR3 (Homo sapiens, UniProt P22607).
T3 construct: FGFR3 (residues 450–758); 6×His (PreScission-cleavable) (N, cleaved yes); made in house; host or cells: E. coli BL21 Rosetta
Nature of the assay: Kinase inhibition assay (ADP-Glo), FGFR3. It is filed as biochemical. Conditions: wild-type kinase domain. The protocol:
as §1, §2

The target in assay [4] is T4, FGFR4 (Homo sapiens, UniProt P22455).
T4 construct: FGFR4 (residues 445–753); 6×His (PreScission-cleavable) (N, cleaved yes); made in house; host or cells: E. coli BL21 Rosetta
Nature of the assay: Kinase inhibition assay (ADP-Glo), FGFR4. The class given is biochemical. The protocol:
as §1, §2

The target in assay [5] is T5, CSF-1R (Homo sapiens, UniProt P07333, C667T/C830S/C907T/DEL696-741).
T5 construct: Wild-type CSF-1R (residues 542–919, △696–741, C677T, C830S, C907T); 6×His (N); made in house; host or cells: SF9 insect cells (baculovirus)
T5 sequence (P07333 with tags, fused parts or gaps C667T/DEL696-741/C830S/C907T): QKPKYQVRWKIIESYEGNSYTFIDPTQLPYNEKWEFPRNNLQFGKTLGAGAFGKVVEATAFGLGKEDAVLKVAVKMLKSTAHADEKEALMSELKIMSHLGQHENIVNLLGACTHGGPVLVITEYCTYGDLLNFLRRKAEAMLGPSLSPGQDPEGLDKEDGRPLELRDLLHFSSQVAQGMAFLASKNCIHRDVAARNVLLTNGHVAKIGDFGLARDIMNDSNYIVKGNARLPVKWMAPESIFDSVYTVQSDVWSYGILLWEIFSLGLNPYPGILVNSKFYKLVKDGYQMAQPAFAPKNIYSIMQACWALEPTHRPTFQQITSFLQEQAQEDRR
Nature of the assay: Kinase inhibition assay (ADP-Glo), CSF-1R. It is filed as biochemical. Conditions: wild-type kinase domain. The protocol:
(§3) Wild-type CSF-1R (residues 542–919, △696–741, C677T, C830S, C907T) and CSF-1R^T663I carrying an N-terminal 6×His tag was cloned into a pFastBac expression vector, and was expressed in SF9 cells using the Invitrogen Bac-to-Bac Baculovirus Expression System[41]. For crystallization, CSF-1R was co-expressed with N-terminal GST-tagged YOPH to induce non-phosphorylated proteins. The harvested cell pellets were lysed by sonication in lysis buffer consisting of 40 mM K-phosphate, pH 8.0, 200 mM NaCl, 0.5 mM PMSF, and protease inhibitor mixture (EDTA-free, Roche). After centrifugation, the clarified cell lysate was supplemented with 20 mM imidazole, and incubated with Ni-NTA beads (GE Healthcare). The Ni-NTA bead-bound CSF-1R protein was eluted using 25 mM HEPES, pH 7.0, 150 mM NaCl and 200 mM imidazole, and was subsequently supplemented with 10 mM DTT after elution. […]
as §2

Assay [6] concerns the target T6, FGFR1^V561M (Homo sapiens, UniProt P11362, V561M).
T6 construct: FGFR1 (residues 458–765); 6×His (PreScission-cleavable) (N, cleaved yes); made in house; host or cells: E. coli BL21 Rosetta
The assay can be described thus: Kinase inhibition assay (ADP-Glo), FGFR1 V561M gatekeeper mutant. The class given is biochemical. The protocol:
as §1, §2

Assay [7] addresses T7, FGFR2^V564I (Homo sapiens, UniProt P21802, V564I).
T7 construct: FGFR2 (residues 458–768); 6×His (PreScission-cleavable) (N, cleaved yes); made in house; host or cells: E. coli BL21 Rosetta
Nature of the assay: Kinase inhibition assay (ADP-Glo), FGFR2 V564I gatekeeper mutant. It is filed as biochemical. The protocol:
as §1, §2

Assay [8] concerns the target T8, FGFR2^V564F (Homo sapiens, UniProt P21802, V564F).
T8 construct: FGFR2 (residues 458–768); 6×His (PreScission-cleavable) (N, cleaved yes); made in house; host or cells: E. coli BL21 Rosetta
Nature of the assay: Kinase inhibition assay (ADP-Glo), FGFR2 V564F gatekeeper mutant. It is filed as biochemical. The protocol:
as §1, §2

The target of assay [9] is T9, FGFR3^V555M (Homo sapiens, UniProt P22607, V555M).
T9 construct: FGFR3 (residues 450–758); 6×His (PreScission-cleavable) (N, cleaved yes); made in house; host or cells: E. coli BL21 Rosetta
The assay can be described thus: Kinase inhibition assay (ADP-Glo), FGFR3 V555M gatekeeper mutant. The class given is biochemical. The protocol:
as §1, §2

In assay [10] the target is T10, CSF-1R^T663I (Homo sapiens, UniProt P07333, C667T/C830S/C907T/DEL696-741/T663I).
T10 sequence (P07333 with tags, fused parts or gaps T663I/C667T/DEL696-741/C830S/C907T): T5 sequence (P07333 with tags, fused parts or gaps C667T/DEL696-741/C830S/C907T) with T122I
Nature of the assay: Kinase inhibition assay (ADP-Glo), CSF-1R T663I gatekeeper mutant. It is filed as biochemical. The following applies: read-out: Kinase inhibitory activity CSF-1R^T663I IC50. The protocol: as §3, §2

In assay [11] the test system is FGFR3. Further details: method as in PMID 28665128. The following applies: cited from earlier work.
For assay [12], the system named is FGFR4. Further details: method as in PMID 28665128. Conditions: cited from earlier work.
In assay [13] the test system is CSF-1R. Also on record: method as in PMID 28665128. Conditions: cited from earlier work.

Where a chain is given by its changes, count along the chain named. pIC50: −log10 of the molar value. Like-named read-outs stand apart in the source and are kept apart here. Where only a bound is given, the exact number is not on record here.

T6 sequence (P11362 458-765 V561M): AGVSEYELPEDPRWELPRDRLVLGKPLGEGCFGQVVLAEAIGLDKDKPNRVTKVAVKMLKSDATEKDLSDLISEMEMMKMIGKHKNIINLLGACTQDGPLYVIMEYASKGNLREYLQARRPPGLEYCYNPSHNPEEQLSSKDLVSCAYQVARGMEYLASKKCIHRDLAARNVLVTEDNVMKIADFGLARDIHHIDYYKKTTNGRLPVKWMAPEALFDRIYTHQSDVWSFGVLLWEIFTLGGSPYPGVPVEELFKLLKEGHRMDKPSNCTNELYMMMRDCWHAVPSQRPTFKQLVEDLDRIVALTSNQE
T8 sequence (P21802 458-768 V564F): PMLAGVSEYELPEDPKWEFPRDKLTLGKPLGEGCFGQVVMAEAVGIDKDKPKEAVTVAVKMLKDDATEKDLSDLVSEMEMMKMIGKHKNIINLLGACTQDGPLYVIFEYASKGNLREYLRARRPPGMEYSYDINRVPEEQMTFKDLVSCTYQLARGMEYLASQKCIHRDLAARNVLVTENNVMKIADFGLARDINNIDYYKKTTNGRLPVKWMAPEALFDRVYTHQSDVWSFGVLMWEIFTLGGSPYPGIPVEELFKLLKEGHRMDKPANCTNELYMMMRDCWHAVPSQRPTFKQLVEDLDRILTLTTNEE
T9 sequence (P22607 450-758 V555M): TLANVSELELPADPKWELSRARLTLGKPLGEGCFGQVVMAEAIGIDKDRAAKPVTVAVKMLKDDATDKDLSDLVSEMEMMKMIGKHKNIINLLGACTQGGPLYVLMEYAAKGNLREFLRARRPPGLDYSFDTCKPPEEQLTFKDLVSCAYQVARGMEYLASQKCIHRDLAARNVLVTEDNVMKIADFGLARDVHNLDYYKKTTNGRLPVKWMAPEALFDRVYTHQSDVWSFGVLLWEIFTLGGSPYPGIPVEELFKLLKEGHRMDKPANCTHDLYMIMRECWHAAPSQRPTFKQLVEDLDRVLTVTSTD
T4 sequence (P22455 445-753): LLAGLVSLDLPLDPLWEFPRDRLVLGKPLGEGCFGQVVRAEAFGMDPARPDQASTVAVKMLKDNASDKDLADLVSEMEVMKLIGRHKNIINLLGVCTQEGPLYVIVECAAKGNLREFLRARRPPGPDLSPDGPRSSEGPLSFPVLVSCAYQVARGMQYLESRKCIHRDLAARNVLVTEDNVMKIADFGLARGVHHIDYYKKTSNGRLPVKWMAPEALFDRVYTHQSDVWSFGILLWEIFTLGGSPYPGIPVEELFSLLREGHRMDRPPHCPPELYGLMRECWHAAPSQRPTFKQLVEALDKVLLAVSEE
T7 sequence (P21802 458-768 V564I): as the sequence (P21802 458-768 V564F) above, with F107I counted along it
T3 sequence (P22607 450-758): as the sequence (P22607 450-758 V555M) above, with M106V counted along it
T2 sequence (P21802 458-768): as the sequence (P21802 458-768 V564F) above, with F107V counted along it
T1 sequence (P11362 458-765): as the sequence (P11362 458-765 V561M) above, with M104V counted along it

As to `Cc1cc2cc(Oc3ccnc(Nc4cccc(CS(=O)(=O)NCCN(C)C)c4)n3)ccc2[nH]1` [sulfatinib], the pIC50 – broadly, the negative decadic logarithm of the IC50, by convention in mol/L – was 7.47 in assay [1]; 7.68 in [2]; 7.55 in assay [3]; 6.05 in [4] (wild-type kinase domain, ADP-Glo); 8.30 in assay [5]; below 5.30 in [6] (ADP-Glo, read-out: Kinase inhibitory activity FGFR1^V561M IC50). Besides, the pIC50 in assay [6] (bound stated, read-out: IC50 for FGFR1^V561M) is below 5.70; in [7] (ADP-Glo, read-out: Kinase inhibitory activity FGFR2^V564I IC50), 5.46; in assay [7] (bound stated, read-out: IC50 for FGFR2^V564I), below 5.70; in [8] (ADP-Glo, read-out: Kinase inhibitory activity FGFR2^V564F IC50) it was 5.53; in [8] (bound stated, read-out: IC50 for FGFR2^V564F) it was below 5.70; in [9] (ADP-Glo, read-out: Kinase inhibitory activity FGFR3^V555M IC50) it was below 5.30. Further, the pIC50 in [9] (bound stated, read-out: IC50 for FGFR3^V555M) is below 5.70; in assay [10], 8.40. Also, the “reduction in efficacy for FGFR4” value in [4] (FGFR4 IC50 compared with FGFR1) is on record as “approximately 26 fold”.

On to `C=CC(=O)N1CCN(CCCn2c(=O)c(-c3c(Cl)c(OC)cc(OC)c3Cl)cc3cnc(NC)nc32)CC1` [PRN1371, 8-(3-(4-Acryloylpiperazin-1-yl)propyl)-6-(2,6-dichloro-3,5-dimethoxyphenyl)-2-(methylamino)pyrido[2,3-d]pyrimidin-7(8H)-one], for which the pIC50 is […] in [11], 7.71 in [12] and 8.09 in [13].
